Read-outs that look alike come from different tables or passages of the source.
Key:
[1] = system: mouse T cell lymphoma cells (EL4); conditions: 18 to 24 hours
Procedure: (§1) The cytotoxicity assay was performed by the conventional method [H. Lee et al., Regul. Pept. (2008), 147, 72-81]. The cells of Reference Example 1 were dispensed in a 96-well plate at a concentration of 1×10^4 cells/well for R182 and A2780 cells together with 0.1 mL of 10% FBS containing cell medium, and a concentration of 1×10^5 cells/well for […] the cells were cultured for 24 hours and then cultured for 12-16 hours in the absence of FBS.
(§2) The cultured cells were treated with various concentrations of calcium chloride (CaCl2, Sigma-Aldrich) at concentrations of 10, 50, 100, 200 and 300 mM and cultured for 18 to 24 hours to perform WST-1 assay (EZ-Cytox Cell Viability Assay kit, Daeillab Service, Seoul, Korea) for cell cytotoxicity assay.
(§3) WST-1 reagent of 10 μL was added to each well and incubated for 2 hours in a humidified incubator at 37° C. and 5% CO2 and the absorbance was measured at 450 nm using a microplate reader (Tecan, M, Switzerland) to calculate the percent growth rate.

[2] = system: human ovarian cancer cell R182
Procedure: as §1, §2, §3

[3] = system: human ovarian cancer cells A2780
Procedure: as §1, §2, §3

CREC cells = conditions: 18 to 24 hours
Procedure: The cells of Reference Example 1 were dispensed in a 96-well plate at a concentration of 1×10^4 cells/well for R182 and A2780 cells together with 0.1 mL of 10% FBS containing cell medium, and a concentration of 1×10^5 cells/well for R182 and A2780 cells, and the cells were cultured for 24 hours and then cultured for 12-16 hours in the absence of FBS.

[4] = system: human ovarian cancer cell A2780; assay: cells; conditions: for viability at 0.5 µM: A2780, 24 h
Procedure: In the case of A2780 cells, 0.125 wt % agarose-7.5 wt % marine collagen-1 wt % alginate composite hydrogel support was prepared in the same manner as in Example 9, the cells were added to 96-well plate to induce the gelation at 4° C. for 5-10 minutes, and then cultured in the medium. In addition, the conventional two-dimensional cell culture was also performed as a control for three-dimensional cell culture.
(§5) In order to perform a sensitivity assay for an anticancer agent, EL4 and human ovarian cancer cell A2780 were cultured in an agarose-marine collagen-alginate composite hydrogel support in a two-dimensional and three-dimensional environment and an efficacy test for an anticancer agent was performed. EL4 cells cultured in two-dimensional culture conditions and EL4 cells cultured three-dimensionally in an agarose-marine collagen-alginate composite hydrogel support were treated with 5 μM doxorubicin (5927, cell signaling) and 100 μM resveratrol and the human ovarian cancer cell A2780 was treated with paclitaxel at a concentration of 0.5 μM for 24 hours, and then with WST-1 reagent, and absorbance was measured at 450 nm by a microplate reader to calculate percent growth rate.
In addition, 10 and 20 μM paclitaxel, and 30 and 50 μM curcumin were added to A2780 cells cultured in two-dimensional condition and A2780 cells cultured three-dimensionally for 7 days in agarose-marine collagen-alginate composite hydrogel supports, and the control group was treated with DMSO at the same concentration as the experimental group. The WST-1 reagent was then treated and the absorbance at 450 nm was measured by a microplate reader to calculate the percentage growth rate.

EL4 cells = assay: cells; conditions: Mus musculus
Procedure: In the case of EL4 cells, 0.125 wt % agarose-10 wt % marine collagen-1 wt % alginate composite hydrogel support was prepared in the same manner as in Example 9, and cells were added, and the mixture liquid was added to a 1 mL syringe with 80 μL to induce the gelation at 4° C. for 5-10 minutes, and then cultured in a 48-well plate.
as §5

[5] = system: human non-small cell lung cancer (NCI-H1703) cells; assay: Anticancer drug susceptibility, WST-1 cell viability, 2D culture vs 3D culture on Fc 4%-Sc 50% fish collagen/PCL nanofiber support; format: cell-based; conditions: 3 μM doxorubicin, read-out: cell viability as compared with the control group
Procedure: (§4) First, an Fc 4%-Sc 50% fish collagen/PCL nanofiber support prepared in the same manner as in Example 1, was placed in a 96-well plate and NCI-H1703 and DU-145 cells were inoculated at a concentration of 5×10^4 cells/well. […] The results are expressed as mean±standard deviation (SD) for each analysis. Statistical analysis was performed using a two-tailed t-test and statistical significance was evaluated based on P<0.05.

[6] = system: prostate cancer cell line DU-145; assay: as above; format: cell-based; conditions: Homo sapiens, 3 μM paclitaxel, read-out: cell viability as compared with the control group
Procedure: as §4

[7] = EL4, read-out: cell viability compared to the control group
[8] = EL4, read-out: viability as compared with the control group

[Ca+2].[Cl-].[Cl-] [CaCl2, calcium chloride]
dose-dependent cytotoxic effect (WST-1, percent growth rate) ([1]; 10 mM): 101.3%
dose-dependent cytotoxic effect (WST-1, percent growth rate) ([1]; 50 mM): 59.2%
dose-dependent cytotoxic effect (WST-1, percent growth rate) ([1]; 100 mM): 25.4%
dose-dependent cytotoxic effect (WST-1, percent growth rate) ([1]; 200 mM): 11.2%
dose-dependent cytotoxic effect (WST-1, percent growth rate) ([1]; 300 mM): 9.7%
cytotoxic effect (WST-1, percent growth rate) ([2]; 50 mM): 34.1%
cytotoxic effect (WST-1, percent growth rate) ([2]; 100 mM): 26.4%
cytotoxic effect (WST-1, percent growth rate) ([2]; 150 mM): 21.1%
cytotoxic effect (WST-1, percent growth rate) ([2]; 200 mM): 21.4%
cytotoxic effect (WST-1, percent growth rate) ([2]; 250 mM): 24.9%
cytotoxic effect (WST-1, percent growth rate) ([2]; 300 mM): 25.6%
dose-dependent cytotoxic effect (WST-1, percent growth rate) ([3]; 50 mM): 74.9%
dose-dependent cytotoxic effect (WST-1, percent growth rate) ([3]; 100 mM): 65.9%
dose-dependent cytotoxic effect (WST-1, percent growth rate) ([3]; 150 mM): 41.5%
dose-dependent cytotoxic effect (WST-1, percent growth rate) ([3]; 200 mM): 37.9%
dose-dependent cytotoxic effect (WST-1, percent growth rate) ([3]; 250 mM): 39.5%
dose-dependent cytotoxic effect (WST-1, percent growth rate) ([3]; 300 mM): 43.7%
dose-dependent cytotoxic effect (WST-1, percent growth rate) (CREC cells; 10 mM): 81.1%
dose-dependent cytotoxic effect (WST-1, percent growth rate) (CREC cells; 50 mM): 36.8%
dose-dependent cytotoxic effect (WST-1, percent growth rate) (CREC cells; 100 mM): 23.0%
dose-dependent cytotoxic effect (WST-1, percent growth rate) (CREC cells; 200 mM): 9.9%
dose-dependent cytotoxic effect (WST-1, percent growth rate) (CREC cells; 300 mM): 10.3%

COc1cc(/C=C/C(=O)CC(=O)/C=C/c2ccc(O)c(OC)c2)ccc1O [curcumin]
viability at 30 µM ([4]; A2780, read-out: cell viability, 30 μM curcumin, second pair of values, printed again as two-dimensional environment): 95%
viability at 30 µM ([4]; A2780, read-out: cell viability, 30 μM curcumin, two-dimensional environment): 42.5%
viability at 50 µM ([4]; A2780, read-out: cell viability, 50 μM curcumin, second pair of values, printed again as two-dimensional environment): 82.4%
viability at 50 µM ([4]; A2780, read-out: cell viability, 50 μM curcumin, two-dimensional environment): 36.7%

COc1cccc2c1C(=O)c1c(O)c3c(c(O)c1C2=O)C[C@@](O)(C(=O)CO)C[C@@H]3O[C@H]1C[C@H](N)[C@H](O)[C@H](C)O1 [doxorubicin]
viability at 5 µM (EL4 cells; [7]): 71.4%
viability at 5 µM (EL4 cells; [8]): 58.6%
viability at 3 µM ([5]; NCI-H1703, 24 h, 24 hours, three-dimensional environment (Fc 4%-Sc 50% support)): 94.5%
viability at 3 µM ([5]; NCI-H1703, 24 h, 24 hours, two-dimensional environment): 55.1%
viability at 3 µM ([5]; NCI-H1703, 48 h, 48 hours, three-dimensional environment (Fc 4%-Sc 50% support)): 95.7%
viability at 3 µM ([5]; NCI-H1703, 48 h, 48 hours, two-dimensional environment): 40.8%

CC(=O)O[C@H]1C(=O)[C@@]2(C)[C@H]([C@H](OC(=O)c3ccccc3)[C@]3(O)C[C@H](OC(=O)[C@H](O)[C@@H](NC(=O)c4ccccc4)c4ccccc4)C(C)=C1C3(C)C)[C@]1(OC(C)=O)CO[C@@H]1C[C@@H]2O [paclitaxel]
viability at 10 µM ([4]; A2780, 10 μM paclitaxel, two-dimensional environment): 12.3%
viability at 20 µM ([4]; A2780, 20 μM paclitaxel, two-dimensional environment): 6.4%
viability at 0.5 µM ([4]; read-out: cell viability, 0.5 μM paclitaxel, 24 hours, three-dimensional environment (hydrogel support)): 94.2%
viability at 0.5 µM ([4]; read-out: viability as compared with the control group, 0.5 μM paclitaxel, 24 hours, two-dimensional environment): 60.9%
viability at 10 µM ([4]; A2780, 168 h, 10 μM paclitaxel, three-dimensional environment (cultured 7 days in hydrogel support)): 40.2%
viability at 20 µM ([4]; A2780, 168 h, 20 μM paclitaxel, three-dimensional environment (cultured 7 days in hydrogel support)): 51.4%
viability at 3 µM ([6]; DU-145, 24 h, 24 hours, three-dimensional environment (Fc 4%-Sc 50% support)): 93.5%
viability at 3 µM ([6]; DU-145, 24 h, 24 hours, two-dimensional environment): 50.2%
viability at 3 µM ([6]; DU-145, 48 h, 48 hours, three-dimensional environment (Fc 4%-Sc 50% support)): 64.2%
viability at 3 µM ([6]; DU-145, 48 h, 48 hours, two-dimensional environment): 14.6%

Oc1ccc(C=Cc2cc(O)cc(O)c2)cc1 [resveratrol]
viability at 100 µM (EL4 cells; [7]): 93.5%
viability at 100 µM (EL4 cells; [8]): 50.2%

— patent US10227560B2, “Biomimetic support for three-dimensional cell culturing, method for manufacturing same, and use thereof” (PUSAN NATIONAL UNIVERSITY INDUSTRY-UNIVERSITY COOPERATION …, priority 2014, dated 2019)
